Laboratory results: patent US6548242B2, “Process for the sterilization of biological compositions and the product thereby” (priority 1990, dated 2003)
Several values for one entry are separate records, joined by “and”; a condition that tells them apart may be missing. Equal values may be shown once. Read-outs that look alike come from different tables or passages of the source.

What was measured:
RBCCs = experiment: Extracellular (plasma) potassium of stored RBCCs
platelets [1] = experiment: Platelet aggregation in response to collagen after treatment of platelet concentrate; type: cell-based; settings: for Aggregation Response % Control / Agqregation Response % control: 25 μg/ml AMT; for agg response: Platelet Conc., 50 μg/ml AMT + 57 J/cm^2 UVA; for % Untreated Control - Extent of Aggregation Response to Collagen, untreated / % Untreated Control - Rate of Aggregation Response to Collagen, untreated: flavonoid present, no AMT/UVA treatment
[2] = system: cell-free vesicular stomatitis virus (VSV); type: cell-based
bacteriophage M13 = type: cell-based
[3] = system: encephalomyocarditis virus (EMC); type: cell-based
cell-associated VSV = type: cell-based, vesicular stomatitis virus
lymphocytes = experiment: Lymphocyte inactivation, 3H thymidine uptake after mitogen stimulation; type: cell-based; settings: 15 Gy γ-irradiation
platelets [4] = experiment: Platelet aggregation response to arachidonic acid and ADP after γ-irradiation of PCs; type: cell-based; settings: 2 mM rutin
platelets [5] = experiment: Survival of infused radiolabeled UVB-irradiated platelets; type: in vivo, dogs; settings: dog PCs, 36 mJ/cm^2 UVB in presence of 2 mM rutin, 51chromium label
[6] = system: red blood cell concentrate; experiment: Red cell hemolysis after X-irradiation of red blood cell concentrate; settings: brominated hematoporphyrin derivative, 1 mm rutin
[7] = system: cell-free vesicular stomatitis virus (VSV); settings: cited from earlier work
[8] = 25 μg/ml AMT and 90 minutes of UVA in presence of flavonoid, overnight storage
[9] = 50 μg/ml AMT, 90 minute UVA, air, +0.5 mM Rutin, experiments 1-5
[10] = 25 μg/ml AMT and 90 minutes of UVA, no flavonoid

aluminum phthalocyanine tetrasulfonate [AlPcS4]
plasma K+ (RBCCs; RBCC, 6.5 μM AlPcS4 + 44 J/cm^2 visible light + 4 mM GSH, with γ-irradiation 25 Gy, no rutin, 2 days): 75 mM
plasma K+ (RBCCs; RBCC, 6.5 μM AlPcS4 + 44 J/cm^2 visible light + 4 mM GSH, without γ-irradiation, 2 days): 60 mM

Superoxide Dismutase
Aggregation Response % Control (platelets [1]; platelet conc., 7.5 mW/cm^2 UVA 30 min, quencher 20 μg/ml): 85 % Control
Aggregation Response % Control (platelets [1]; platelet conc., 7.5 mW/cm^2 UVA 30 min, quencher 100 μg/ml): 75 % Control
Aggregation Response % Control (platelets [1]; platelet conc., 7.5 mW/cm^2 UVA 60 min, quencher 20 μg/ml): 50 % Control
Aggregation Response % Control (platelets [1]; platelet conc., 7.5 mW/cm^2 UVA 60 min, quencher 100 μg/ml): 45 % Control
Aggregation Response % Control (platelets [1]; platelet conc., 7.5 mW/cm^2 UVA 90 min, quencher 20 μg/ml): 30 % Control
Virus Inactivation (log10) Cell-Free VSV [2]: ≧6.0 log10
Virus Kill (log10) M13 (bacteriophage M13): 3.9 log10

O=C1O[C@H]([C@@H](O)CO)C(O)=C1O [Ascorbate, ascorbate]
Virus Kill (log10) VSV [2]: ≧6.5 log10
Virus Kill (log10) M13 (bacteriophage M13): 4.7 log10
Virus Kill (log10) EMC [3]: ≧7.7 log10

N[C@@H](CCC(=O)N[C@@H](CS)C(=O)NCC(=O)O)C(=O)O [Glutathione, glutathione]
Aggregation Response % Control (platelets [1]; platelet conc., 7.5 mW/cm^2 UVA 30 min, quencher 2 mM): 80 % Control
Aggregation Response % Control (platelets [1]; platelet conc., 7.5 mW/cm^2 UVA 30 min, quencher 4 mM): 80 % Control
Aggregation Response % Control (platelets [1]; platelet conc., 7.5 mW/cm^2 UVA 30 min, quencher 10 mM): 75 % Control
Aggregation Response % Control (platelets [1]; platelet conc., 7.5 mW/cm^2 UVA 60 min, quencher 2 mM): 60 % Control
Aggregation Response % Control (platelets [1]; platelet conc., 7.5 mW/cm^2 UVA 60 min, quencher 4 mM): 55 % Control
Aggregation Response % Control (platelets [1]; platelet conc., 7.5 mW/cm^2 UVA 90 min, quencher 2 mM): 40 % Control
Aggregation Response % Control (platelets [1]; platelet conc., 7.5 mW/cm^2 UVA 90 min, quencher 4 mM): 25 % Control
Virus Inactivation (log10) Cell-Free VSV [2]: ≧6.0 log10
Virus Kill (log10) M13 (bacteriophage M13): 4.4 log10

N[C@@H](Cc1c[nH]cn1)C(=O)O [Histidine, histidine]
Agqregation Response % control (platelets [1]; platelet conc., 11 mW/cm^2 UVA 30 min, quencher 5 mM): 75 % control
Agqregation Response % control (platelets [1]; platelet conc., 11 mW/cm^2 UVA 30 min, quencher 10 mM): 65 % control
Agqregation Response % control (platelets [1]; platelet conc., 11 mW/cm^2 UVA 60 min, quencher 5 mM): 55 % control
Agqregation Response % control (platelets [1]; platelet conc., 11 mW/cm^2 UVA 90 min, quencher 5 mM): 35 % control
Virus Kill (log10) Cell-free VSV [2]: 5.1 log10 and 4.8 log10
Virus Kill (log10) M13 (bacteriophage M13): 4.0 log10

C[C@@H]1O[C@@H](OC[C@H]2O[C@@H](Oc3c(-c4ccc(O)c(O)c4)oc4cc(O)cc(O)c4c3=O)[C@H](O)[C@@H](O)[C@@H]2O)[C@H](O)[C@H](O)[C@H]1O [rutin]
% Untreated Control - Extent of Aggregation Response to Collagen, treated (platelets [1]; [8]): 100/100 % Untreated Control
% Untreated Control - Rate of Aggregation Response to Collagen, treated (platelets [1]; [8]): 100/100 % Untreated Control
Platelet aggregation, first value of pair (extent as in Table III) (platelets [1]; [9]): 95 and 96/96 and 100 and 100/100 and 98
Platelet aggregation, second value of pair (rate as in Table III) (platelets [1]; [9]): 90 and 96/96 and 84 and 100/100 and 95
agg response (platelets [1]; 0.35 mM rutin): 85%
% Untreated Control - Extent of Aggregation Response to Collagen, untreated (platelets [1]; overnight storage): 100/100 % Untreated Control
% Untreated Control - Rate of Aggregation Response to Collagen, untreated (platelets [1]; overnight storage): 100/100 % Untreated Control
aggregation function (platelets [1]; platelet conc., 25, 50 or 100 μg/ml AMT, 90 min UVA, 0.7 mM rutin): more than 80 % of the control
LOG10 VIRUS KILL VSV [2]: ≧6 LOG10
Virus Kill (log10) VSV [2]: ≧5.4 log10
kill of VSV [2]: exceeded 5 log10
inactivation of cell-associated VSV (cell-associated VSV): ~6 log10
LOG10 VIRUS KILL M13 (bacteriophage M13): 6 LOG10 and 3 LOG10 and 5 LOG10
Virus Kill (log10) EMC [3]: ≧7.7 log10
3H thymidine uptake retained by irradiated lymphocytes (lymphocytes; PCs, independent of presence or concentration of rutin): 1.5%
3H thymidine uptake retained by irradiated lymphocytes (lymphocytes; RBCCs, independent of presence or concentration of rutin (0.5, 1 or 2 mM)): 1.5%
rate of aggregation (platelets [4]; 50 Gy γ-irradiation, 3 day storage): 80 % of the control
Platelet aggregation (platelets [4]; γ-irradiation 15-50 Gy, after 1 day): 95%
Survival of UV-exposed donor platelets (platelets [5]): 5 days
plasma K+ (RBCCs; RBCC, AlPcS4 treatment then γ-irradiation 25 Gy, rutin present during γ-irradiation and storage, 2 days): 25 mM
plasma K+ (RBCCs; RBCC, AlPcS4 treatment then γ-irradiation 25 Gy, rutin present during γ-irradiation and storage, 7 days): 40 mM
plasma K+ (RBCCs; RBCCs, 50 Gy γ-irradiation, 2 mM rutin present during treatment): 40 mM
Extracellular potassium (RBCCs; RBCCs, γ-irradiation, 2 mM rutin): decreased to control levels
red cell hemolysis [6]: less than 2%

O=c1c(O)c(-c2ccc(O)c(O)c2)oc2cc(O)cc(O)c12 [quercetin]
% Untreated Control - Extent of Aggregation Response to Collagen, treated (platelets [1]; [8]): 98/98 % Untreated Control
% Untreated Control - Rate of Aggregation Response to Collagen, treated (platelets [1]; [8]): 98/98 % Untreated Control
% Untreated Control - Extent of Aggregation Response to Collagen, untreated (platelets [1]; overnight storage): 100/100 % Untreated Control
% Untreated Control - Rate of Aggregation Response to Collagen, untreated (platelets [1]; overnight storage): 100/100 % Untreated Control
Virus Kill (log10) VSV [2]: ≧6.5 log10
inactivation of cell-associated VSV (cell-associated VSV): ~6 log10
Virus Kill (log10) M13 (bacteriophage M13): 5.0 log10
Virus Kill (log10) EMC [3]: ≧7.7 log10

Cc1oc2c(C)c3oc(=O)cc(C)c3cc2c1CN [AMT, 4′-aminomethyl-4,5′,8-trimethylpsoralen]
% Untreated Control - Extent of Aggregation Response to Collagen, treated (platelets [1]; [10]): 44 % Untreated Control
% Untreated Control - Rate of Aggregation Response to Collagen, treated (platelets [1]; [10]): 24 % Untreated Control
agg response (platelets [1]; quencher none): ≤ 30%
Aggregation Response % Control (platelets [1]; platelet conc., 7.5 mW/cm^2 UVA 60 min, no quencher): 52 % Control
Aggregation Response % Control (platelets [1]; platelet conc., 7.5 mW/cm^2 UVA 90 min, no quencher): 35 % Control
Agqregation Response % control (platelets [1]; platelet conc., 11 mW/cm^2 UVA 30 min, no quencher): 75 % control
Agqregation Response % control (platelets [1]; platelet conc., 11 mW/cm^2 UVA 60 min, no quencher): 52 % control
aggregation response to collagen (platelets [1]; platelet conc., 100 μg/ml AMT, 90 min UVA, no quencher): no response at all
LOG10 VIRUS KILL VSV [2]: ≧6 LOG10
inactivation of cell-free VSV [2]: completely inactivated
LOG10 VIRUS KILL M13 (bacteriophage M13): 3 LOG10 and 5 LOG10
inactivation of bacteriophage M13 (bacteriophage M13): at least 4 log 10
inactivation of cell-free VSV [7]: ≥ 6.0 log10
